Experimental data as given in US20120190059A1, “METHODS FOR OBTAINING HEPATOCYTES, HEPATIC ENDODERM CELLS AND HEPATIC PROGENITOR CELLS BY INDUCED DIFFERENTIATION” (BEIJING HUAYU[…]., LTD., priority 2009, published 2012).

Tested on: cytochrome p450
Assay: PROD detection of cytochrome p450 activity in differentiated hepatocyte-like cells
Conditions: phenobarbital induction versus no induction, hepatocyte-like cells differentiated from hepatic progenitor cells

## CCC1(c2ccccc2)C(=O)NC(=O)NC1=O [Phenobarbital]
  PROD activity of the differentiated cells: could improve the PROD activity
Listed as phenobarbital
  PROD activity of the differentiated cells: PROD activity was enhanced
